Measurements from PubChem BioAssay (NCI).
Where “and” joins values, the source holds several entries; their conditions need not be identical. Equal entries are not always repeated.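 Five compound concentrations were applied to cells in 96-well plates for 48 hours; endpoints were derived by simple linear interpolation of the resulting dose-response curve. Abbreviation: GI50, concentration required for 50% inhibition of growth. At the TGI there is no net growth.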

Tests used:
Test in all cases: inhibition of tumour cell growth, NCI panel, 48 h
[1] = test system: CAKI-1 renal
[2] = test system: EKVX NSCLC
[3] = test system: HCC-2998 colon
[4] = test system: IGROV1 ovarian
[5] = test system: NCI-H226 lung
[6] = test system: OVCAR-4 ovarian
[7] = test system: RPMI-8226 leukemia
[8] = test system: SF-268 CNS
[9] = test system: SK-MEL-2 melanoma
[10] = test system: SK-MEL-28 melanoma
[11] = test system: SR leukemia
[12] = test system: HS 578T breast
[13] = test system: OVCAR-5 ovarian
[14] = test system: PC-3 prostate
[15] = test system: RXF 393 renal
[16] = test system: MDA-MB-435

SMILES | TGI [1] [µM] | TGI [2] | TGI [3] [µM] | TGI [4] [µM] | TGI [5] | TGI [6] [µM] | TGI [7] [µM] | TGI [8] [µM] | TGI [9] [µM] | TGI [10] [µM] | TGI [11] [µM] | TGI [12] [µM] | TGI [13] [µM] | TGI [14] [µM] | TGI [15] [µM] | TGI [16] [µM] | GI50 [2] [µM] | GI50 [5] [µM]
CC12NN=NC1C(=O)NC2=O (configuration not stated) | > 100 | > 100 µM | > 100 | > 100 | > 100 µM | > 100 | > 100 | > 100 | > 100 | > 100 | > 100 | – | – | – | – | – | – | –
COC(=O)C1CC2(CCC1=O)Cc1ccccc1C2=O (configuration not stated) | > 100 | > 100 µM | > 100 | > 100 | > 100 µM | > 100 | > 100 | > 100 | > 100 | > 100 | > 100 | > 100 | > 100 | > 100 | > 100 | – | – | –
CCOC(=O)C1=C(O)C(=O)c2ccsc2C1=O | > 100 | > 100 µM | > 100 | > 100 | > 100 µM | > 100 | > 100 | > 100 | > 100 | > 100 | > 100 | – | > 100 | – | > 100 | – | – | –
CCOC(=O)c1c(N2CCCC2)nsc1Nc1ccccc1 | > 100 | > 100 µM | > 100 | > 100 | > 100 µM | > 100 | > 100 | > 100 | > 100 | > 100 | > 100 | > 100 | > 100 | > 100 | > 100 | – | – | –
CN(C)CCNC(=O)c1cccc2c(NCC(=O)O)c3ccccc3nc12 | – | 56.4 µM | – | > 100 | 30.9 µM | 30.9 | > 100 | 33.4 | 37.4 | 52.6 | > 100 | 50.7 | > 100 | 55.2 | – | 32.9 | – | –
COc1cc2cc(C(=O)N3CC(CCl)c4ccc(O)cc43)[nH]c2c(OC)c1OC (configuration not stated) | 0.0201 | 0.35 µM and 0.749 µM | 0.00936 | – | 0.0566 µM and 0.471 µM | – | – | 0.145 | 0.00468 | 0.00601 | > 100 | 0.0588 | 0.765 | – | 0.000301 | 0.0158 | 0.285 | 0.116
COC(=O)C1CCC(=O)N1CN(C(C)=O)c1ccccc1 (configuration not stated) | > 100 | > 100 µM | – | > 100 | > 100 µM | > 100 | > 100 | > 100 | > 100 | > 100 | > 100 | > 100 | > 100 | > 100 | – | > 100 | – | –
O=C(NCCCCCCCCNC(=O)c1cc(-c2ccccc2)nc2ccccc12)c1cc(-c2ccccc2)nc2ccccc12 | > 100 | > 100 µM | – | > 100 | > 100 µM | > 100 | > 100 | > 100 | – | > 100 | > 100 | > 100 | > 100 | > 100 | 84.4 | > 100 | – | –
COc1ccc(NC(=O)/C(=N\NC(=O)C[n+]2ccccc2)c2c(O)c3ccc(O)cc3oc2=O)c([N+](=O)[O-])c1 | > 100 | > 100 µM | > 100 | > 100 | > 100 µM | > 100 | > 100 | > 100 | > 100 | > 100 | – | > 100 | > 100 | > 100 | – | > 100 | – | –
CC1(C)CC(=O)c2c(nc3ccc4ccccc4c3c2-c2ccc(NC(=O)CCCC(=O)Nc3ccc(-c4c5c(nc6ccc7ccccc7c46)CC(C)(C)CC5=O)cc3)cc2)C1 | > 100 | > 100 µM | – | > 100 | > 100 µM | – | > 100 | > 100 | > 100 | > 100 | > 100 | > 100 | > 100 | > 100 | – | > 100 | – | –
CNC(=O)N1CN(c2ccccc2)C2(CCN(CCCC(=O)c3ccc(F)cc3)CC2)C1=O | > 100 | 52.5 µM | 22.2 | 89.1 | 79.4 µM | – | 34 | > 100 | – | 38.4 | 69.7 | – | 29 | > 100 | 54.6 | – | – | –
CCO[C@]12C[C@H](OC)[C@@]3(O)CC(C1[C@H]3OCc1ccccc1)C13C4C2[C@H](OC)C1[C@](COC)(CN4CC)[C@H](O)C[C@@H]3OC (some centres not stated) | – | > 100 µM | > 100 | > 100 | > 100 µM | > 100 | > 100 | > 100 | – | > 100 | > 100 | – | > 100 | – | > 100 | – | – | –
CCOC(=O)c1sc2c(c1OC(=O)c1cccs1)c(=O)n(-c1ccccc1)c(=S)n2-c1ccccc1 | 75.8 | 79.5 µM | 36.5 | 28 | 48.7 µM | 27.5 | 31.3 | > 100 | – | 35.4 | – | 83 | 50.7 | 31.8 | 89.8 | 29.2 | – | –
CC1CC[C@@H](C(C)C)[C@H](Oc2nnc(C3OC(CO)C(O)C3O)o2)C1 (some centres not stated) | > 100 | > 100 µM | > 100 | – | > 100 µM | > 100 | > 100 | > 100 | > 100 | – | – | – | > 100 | > 100 | > 100 | > 100 | – | –
COc1cc(OC)c(/C=C2\N=C(C)N(Nc3nnc(NN4C(=O)/C(=C/c5c(OC)cc(OC)cc5OC)N=C4C)c4ccccc34)C2=O)c(OC)c1 | – | > 100 µM | – | > 100 | > 100 µM | > 100 | > 100 | > 100 | – | > 100 | > 100 | – | > 100 | – | > 100 | – | – | –
COc1cccc(/C=C2/Sc3scc(-c4ccccc4)[n+]3C2=O)c1O | 47.7 | 64.6 µM | 30.7 | 38.9 | 40.5 µM | 74.4 | – | > 100 | 89.8 | 40.9 | – | > 100 | > 100 | > 100 | 29.8 | > 100 | – | –

SMILES | TGI [1] [µM] | TGI [2] | TGI [3] [µM] | TGI [4] [µM] | TGI [5] | TGI [6] [µM] | TGI [7] [µM] | TGI [8] [µM] | TGI [9] [µM] | TGI [10] [µM] | TGI [11] [µM] | TGI [12] [µM] | TGI [13] [µM] | TGI [14] [µM] | TGI [15] [µM] | TGI [16] [µM] | GI50 [2] [µM] | GI50 [5] [µM]
COc1ccc(N2C(=O)C3c4[nH]c5ccc(C)cc5c4C4CCC(C)CC4C3C2=O)cc1 (configuration not stated) | > 100 | > 100 µM | – | > 100 | > 100 µM | – | > 100 | > 100 | > 100 | – | > 100 | 37.2 | > 100 | > 100 | 58.6 | > 100 | – | –
N#CC(C#N)=Cc1ccc2c(c1)OC(Cl)O2 (configuration not stated) | > 100 | 79.5 µM | – | – | 38.2 µM | > 100 | > 100 | 66.4 | 37.6 | 36.9 | – | – | 37.1 | 47.8 | 52.3 | 35.7 | – | –
CC1=C(N2CC2)C(=O)c2nc3n(c2C1=O)CCC3OC(=O)CCl (configuration not stated) | 0.174 | 0.551 µM | 0.136 | 0.928 | 0.17 µM | 0.218 | 1.7 | 0.202 | 0.271 | 0.141 | 13.6 | 0.0784 | 0.263 | – | 0.069 | 0.112 | – | –
Cc1ccc(/C=N/Nc2cnccn2)s1 | > 100 | > 100 µM | > 100 | > 100 | > 100 µM | > 100 | > 100 | > 100 | > 100 | > 100 | – | > 100 | > 100 | > 100 | > 100 | > 100 | – | –
COc1ccc(NS(=O)CCCc2ccccc2)cc1 (configuration not stated) | – | > 100 µM | – | > 100 | > 100 µM | > 100 | > 100 | > 100 | > 100 | > 100 | > 100 | > 100 | > 100 | – | – | > 100 | – | –
O=c1cc(-c2cccc(Cl)c2)[nH]c2ncccc12 | 40.4 | > 100 µM | – | > 58.9 | > 100 µM | > 100 | – | > 88.8 | > 86.5 | > 100 | > 100 | 13 | > 100 | 0.0694 | 40.1 | 0.0382 | – | –
CC(=O)C1=CSC2[C@H](NC(=O)Cc3ccccc3)C(=O)N2C1C(=O)OC(c1ccccc1)c1ccccc1 (some centres not stated) | > 100 | > 100 µM | > 100 | > 100 | > 100 µM | > 100 | > 100 | > 100 | > 100 | > 100 | > 100 | – | – | – | – | – | – | –
CC(=O)Nc1ccccc1SCCSSCCSc1ccccc1NC(C)=O | 83.4 | > 100 µM | 50.8 | 46.8 | 81.8 µM | 57.1 | 42.2 | > 100 | 86.5 | – | > 100 | – | 79.2 | > 100 | > 100 | 41.1 | – | –
Cn1c(/C=C(\O)c2ccc(Cl)cc2)nc2ccccc21 | 97 | 84.8 µM | > 100 | > 100 | > 100 µM | > 100 | > 100 | > 100 | > 100 | > 100 | > 100 | – | 67.7 | – | > 100 | – | – | –
O=c1cc(-c2ccccc2)[nH]c2cc(O)ccc12 | 71.6 | > 100 µM | 74.7 | 65.6 | > 100 µM | 58.1 | 37.6 | > 100 | 94.9 | > 100 | 62.9 | – | > 100 | – | 37.5 | – | – | –
NNC(=O)c1ccc(-n2nnc(C(=O)NN)c2C(=O)NN)cc1 | > 100 | > 100 µM | > 100 | – | – | > 100 | > 100 | – | > 100 | > 100 | > 100 | – | > 100 | > 100 | – | > 100 | – | –
CCOC1(COP(=O)(OCc2ccccc2)OCc2ccccc2)COC(COP(=O)(OCc2ccccc2)OCc2ccccc2)(OCC)CO1 (configuration not stated) | > 100 | 9.43 µM | > 100 | > 100 | > 100 µM | > 100 | > 100 | > 100 | > 100 | > 100 | > 100 | – | > 100 | – | > 100 | – | – | –
CC1CCCc2c(C#N)c(N)nc(-c3ccc(Cl)cc3)c21 (configuration not stated) | > 100 | > 100 µM | – | 56.8 | 43.3 µM | – | 39.2 | > 100 | 44.4 | > 100 | 72.8 | > 100 | 63.3 | 42.9 | 21.5 | > 100 | – | –
COC(=O)[C@@H]1CN(C(=O)CCc2ccccc2)C(=O)N1C(=O)OCc1ccccc1 | > 100 | > 100 µM | > 100 | > 100 | > 100 µM | > 100 | > 100 | > 100 | > 100 | > 100 | > 100 | > 100 | > 100 | – | > 100 | > 100 | – | –
CC(C)[C@@H]1NC(=O)[C@H]2N=C(O[C@@H]2C)[C@@H]2CCCN2C(=O)[C@H](Cc2ccccc2)NC(=O)[C@@H]2CSC(=N2)[C@@H](Cc2ccccc2)NC(=O)[C@@H]2CSC1=N2 | > 50 | > 50 µM | > 50 | > 50 | > 50 µM | > 50 | 32.1 | > 50 | > 50 | > 50 | – | > 50 | > 50 | > 50 | > 50 | > 50 | – | –
CN(CCO)c1nc2c(c(=O)[nH]1)CCC2 | > 100 | > 100 µM | > 100 | > 100 | > 100 µM | > 100 | > 100 | > 100 | > 100 | > 100 | > 100 | – | > 100 | – | > 100 | – | – | –
